In article PMC12301034, “Design and Synthesis of Boronic Chalcones with Dual Anticancer and Anti-Inflammatory Activity” (Molecules, 2025):
“Also recorded” adds a separate entry of the source.

Legend:
IL-8 = assay: Anti-inflammatory assay, IL-8 in LPS-stimulated THP-1 cells (CBA); format: cell-based, human; conditions: 2 and 4 µg/mL, 24 h
Procedure: (§1) For this assay, THP-1 (BCRJ cód. 0234) cells were cultured in Roswell Park Memorial Institute (RPMI-1640, Sigma-Aldrich; Saint Louis, MO, USA) media supplemented with 2 mM L-glutamine, 1 mM sodium pyruvate, 1.50 g/L of sodium bicarbonate, and 10% fetal bovine serum. For obtaining Macrophage-like cells, 250,000 cells per well were plated in a 24-well cell culture plate. A total of 20 ng/mL of Forbol 12-miristato-13-acetato (PMA) was added to each well, and the cells were incubated for 48 h at 37 °C with 5% CO2. After the 48 h, the wells were washed with 1X PBS, and fresh RPMI-1640 media was added. The cells were then incubated for 24 h at 37 °C and 5% CO2. For the cell’s stimulations, after the 24 h, the well was washed with PBS and fresh RPMI1640 media without fetal bovine serum added. For the positive controls of the assay, 3 wells were stimulated with LPS (1 ng/µL) diluted in the same volume and media used for the drugs stimulation. Two different concentrations (2 and 4 µg/mL) were evaluated for each molecule, which were determined to be non-cytotoxic through a cell viability assay. After a 24 h period, the supernatant was removed and used in the cytokine quantification assay. A kit for inflammatory cytokines, BD® Cytometric Bead Array CBA Human Inflammatory, was employed for this assay, containing the following human cytokines: IL-8, IL-1β, IL-6, and TNF. […]

TNF = assay: Anti-inflammatory assay, TNF in LPS-stimulated THP-1 cells (CBA); format: cell-based, human
Procedure: For this assay, THP-1 (BCRJ cód. 0234) cells were cultured in Roswell Park Memorial Institute (RPMI-1640, Sigma-Aldrich; Saint Louis, MO, USA) media supplemented with 2 mM L-glutamine, 1 mM sodium pyruvate, 1.50 g/L of sodium bicarbonate, and 10% fetal bovine serum. For obtaining Macrophage-like cells, 250,000 cells per well were plated in a 24-well cell culture plate. A total of 20 ng/mL of Forbol 12-miristato-13-acetato (PMA) was added to each well, and the cells were incubated for 48 h at 37 °C with 5% CO2. After the 48 h, the wells were washed with 1X PBS, and fresh RPMI-1640 media was added. The cells were then incubated for 24 h at 37 °C and 5% CO2. For the cell’s stimulations, after the 24 h, the well was washed with PBS and fresh RPMI1640 media without fetal bovine serum added. For the positive controls of the assay, 3 wells were stimulated with LPS (1 ng/µL) diluted in the same volume and media used for the drugs stimulation. Two different concentrations (2 and 4 µg/mL) were evaluated for each molecule, which were determined to be non-cytotoxic through a cell viability assay. After a 24 h period, the supernatant was removed and used in the cytokine quantification assay. A kit for inflammatory cytokines, BD® Cytometric Bead Array CBA Human Inflammatory, was employed for this assay, containing the following human cytokines: IL-8, IL-1β, IL-6, and TNF. Standard cytokines were prepared in 9 different concentrations: 1:256, 1:128, 1:64, 1:32, 1:16, 1:8, 1:4, 1:2, and 1:1 (“top standard”). Analysis was performed using a Flow Cytometer FACS Aria Fusion BD (Bioscence, Houston, TX, USA). Data analysis was conducted using Prism software (version 10.4.1).

Kinetic solubility = format: physicochemical
Procedure: To determine kinetic solubility, stock solutions of test compounds and controls [Amiodarone hydrochloride (Sigma-Aldrich, St. Louis, MO, USA), Diclofenac (Oakwood Chemical, Estill, SC, USA), Chloramphenicol (Sigma-Aldrich, St. Louis, MO, USA), and Itraconazole (Sigma-Aldrich, St. Louis, MO, USA)] were prepared at 10 mM in DMSO. A volume of 5 µL from each stock solution was transferred to designated wells of a 96-well incubation plate in duplicate. Subsequently, 195 µL of phosphate-buffered saline (PBS) at pH 7.4 or 2.0 was added to achieve a final compound concentration of 250 µM (final DMSO concentration ≤ 2.5%). The plate was sealed and subjected to shaking at 200 rpm for 24 ± 1 h at room temperature (25 °C). Following the incubation period, the plate was centrifuged at 3000 rpm for 15 min at 25 °C to remove precipitates. A 100 µL aliquot of the supernatant from each well was transferred to a corresponding well in a new 96-well plate. The samples were subsequently analyzed by an LCMS-8045 system (Shimazu, Kyoto, Japan). To quantify the solubilized fraction, a calibration curve was prepared for each test compound and control. From the 10 mM stock solution, an intermediate standard solution (0.5 mM) was prepared in a 1:1 acetonitrile:water mixture. Serial dilutions of this intermediate solution were performed to obtain final concentrations of 50, 40, 20, 2, and 1 µM. […]

IL-1β = assay: Anti-inflammatory assay, IL-1β in LPS-stimulated THP-1 cells (CBA); format: cell-based, human; conditions: 2 and 4 µg/mL, 24 h
Procedure: as §1

[1] = Distribution coefficient (eLogD) by HPLC retention time; format: physicochemical; conditions: Supelco Ascentis Express RP Amide column, pH 7.4, read-out: LogD7.4
Procedure: The determination of the experimental distribution coefficient (eLogD) was based on the retention time of molecules in the stationary phase using high-performance liquid chromatography (HPLC). Chromatographic analysis was performed on a Supelco Ascentis Express RP Amide HPLC column (5 cm × 2.1 mm, 2.7 μm), with a binary gradient mobile phase consisting of (A) 5% methanol in 10 mM ammonium acetate pH 7.4 and (B) 100% methanol. The mobile phase was eluted as follows: 0 min, 95% A; 0.3 min, 100% A; 5.2 min, 0% A; 5.6 min, 0% A; 5.8 min, 100% A; 7.0 min, 100% A. The total run time was 7 min, with a sample injection volume of 5 μL. Test compounds were prepared by diluting stock solutions (1.0 mg/mL in DMSO) in a mixture of mobile phases A:B (1:1 v/v) containing an internal standard (200 nM), achieving a final concentration of 1.0 μg/mL (final DMSO concentration ≤ 1%). The prepared solutions were transferred to a 96-well plate in duplicate, which was then sealed and introduced into the autosampler for analysis. […]. These reference and control compounds were injected at the beginning and end of the experimental procedure. A calibration graph was obtained by plotting the retention times of the reference compounds against their respective LogD values. The resulting equation (y = mx + b) was used to calculate the eLogD7.4 values for the test compounds and controls. […]

- solubility class (Kinetic solubility; kinetic solubility pH 7.4): moderate-to-high solubility
- solubility at 24 h (Kinetic solubility; phosphate-buffered saline, aqueous buffer, kinetic from dmso stock, PBS pH 7.4, 24 h, 25 °C, read-out: Kinect Solubility (KS) pH = 7.4): > 39.6 µg/mL
- chromatographic logD [1]: 3.92
Compound: COc1cccc(C(=O)/C=C/c2cccc(B(O)O)c2)c1 [Compound 5, (E)-(3-(3-(3-methoxyphenyl)-3-oxoprop-1-en-1-yl)phenyl)boronic acid]
- reduction of IL-8 levels (IL-8): effectively reduced cytokine levels
- TNF levels relative to untreated THP-1 cells (TNF; 7.1 μM): reducing them below those of untreated THP-1 cells
- reduction of TNF levels (TNF; 2 and 4 µg/mL, 24 h): significantly reduced; also recorded: pronounced reduction
- reduction of IL-1β levels (IL-1β): comparable efficacy in reducing cytokine levels relative to LPS-stimulated cells
